Measured values as given in paper PMC10226132, “First-in-Class Selective Inhibitors of the Lysine Acetyltransferase KAT8” (Journal of Medicinal Chemistry, 2023).

Columns and labels:
HeLa cells = test: Cell cycle analysis by propidium iodide staining, HeLa; assay type: cell-based, human; conditions: 72 h
Experimental: For the analysis of the progression of cells through cell cycle phases and sub-G1 peak identification, 24 h after plating, cells were treated with the different compounds. After 72 h, both floating and adherent cells were collected and fixed with cold 70% ethanol. At least 24 h after fixation, cells were incubated with 0.025 mg/mL Propidium Iodide for 15 min at room temperature and analyzed. For Annexin V analysis, 24 h after plating, cells were treated with 50 and 100 μM of the compounds. In the case of chloroquine experiments, 10 μM chloroquine (Sigma-Aldrich, A9165) was added 30 min before compounds. 72 h after treatment, both floating and adherent cells were collected and stained with an Annexin V-FITC apoptosis detection kit (ENZO #ALX-850-020-KI). Samples were incubated 15 min in the dark at rt, and 10,000 events were then analyzed.

KAT3B = biological target: T1, KAT3B (Homo sapiens, UniProt Q09472); test: HotSpot KAT assay, KAT3B; assay type: biochemical; conditions: enzyme 1 nM, NI = no inhibition at 200 μM, mean ± SD of three independent experiments; for IC50: read-out: IC50 KAT3B (1 nM)
T1 construct: KAT3B (aa 1284–1672, 1 nM); purchased Reaction Biology Corporation
T1 sequence (Q09472 1284-1672): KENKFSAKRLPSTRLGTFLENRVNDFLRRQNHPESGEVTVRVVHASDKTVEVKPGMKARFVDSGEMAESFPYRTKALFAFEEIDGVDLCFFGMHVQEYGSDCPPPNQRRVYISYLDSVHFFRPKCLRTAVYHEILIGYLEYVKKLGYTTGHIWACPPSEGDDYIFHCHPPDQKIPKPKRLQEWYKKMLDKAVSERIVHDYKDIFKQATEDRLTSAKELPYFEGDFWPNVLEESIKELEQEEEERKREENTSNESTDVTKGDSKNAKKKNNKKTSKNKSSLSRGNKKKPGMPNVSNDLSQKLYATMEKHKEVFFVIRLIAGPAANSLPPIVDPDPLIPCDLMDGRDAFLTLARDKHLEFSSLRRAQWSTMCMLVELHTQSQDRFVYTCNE

[1] = system: normal human lung fibroblasts (NHLF); test: Proliferation of normal human lung fibroblasts (NHLF); assay type: cell-based; conditions: 25, 50, 100, 200 μM, 72 h
Experimental: For analysis of cell proliferation, cells were plated in sextuplicate on 96-well plates in complete media. After 24 h, cells were exposed to different drugs for 72 h. The inhibitory effect of different drugs was assessed by MTT (Sigma, St. Louis, MO, USA) colorimetric assays as previously reported.[67] Aqueous DMSO (0.5% v/v) was used as a control (untreated). The results are reported as “viability of drug-treated cells/viability of untreated cells” × 100 and represent the average ±SD of three independent experiments. IC50 values were using fitted by nonlinear regression using GraphPad Prism 8.0.

[2] = system: LC3 and p62 in HCT116 cells; test: Western blot of autophagic markers in HCT116 cells; assay type: cell-based, human; conditions: increasing doses, 48 h
Experimental: For WB experiments, the cells were lysed in RIPA buffer supplemented with 1× […] protease inhibitor cocktail (Sigma-Aldrich, S8830); 20 μg of total protein was resolved in 13.5% gels by SDS-PAGE. Then, the proteins were transferred to nitrocellulose membranes (Biorad Laboratories). Membranes were blocked for 1 h and incubated overnight with the appropriate primary antibody at 4 °C. After incubation, membranes were washed and incubated with the appropriate secondary antibody (Biorad Laboratories) for 1 h at room temperature. Following primary rabbit monoclonal antibodies H4K16Ac (1:1000, E2B8W, Rabbit mAb#13534, Cell Signalling Technology), KAT8 (1:1000, D5T3R Rabbit mAb #46862 Cell Signalling Technology), GAPDH (1:1000, sc-32233, Santa Cruz Biotechnologies), anti-LC3B (Sigma-Aldrich, L7543), anti-SQSTM1/p62 (Santa Cruz Biotechnology, sc-28,359), and anti-GAPDH (Santa Cruz Biotechnology, sc-32,233). Secondary antibodies: anti-mouse (Bio-Rad Laboratories, 1,706,515) or anti-rabbit (Bio-Rad Laboratories, 1,706,516) IgG-horseradish peroxidase-conjugated antibodies. Detection was performed by ECL Western Blotting Substrate (Biorad Laboratories). Images of blots were acquired through the ChemiDoc Imaging Systems (Biorad Laboratories). The band signals were quantified using ImageJ, and values were normalized to relative controls, depending on the analysis.

KAT2A = biological target: T2, KAT2A (Homo sapiens, UniProt Q92830); test: HotSpot KAT assay, KAT2A; assay type: biochemical; conditions: 200 μM, NI = no inhibition; for inhibition at 200 µM: read-out: % inhibition at 200 μM KAT2A (15 nM)
T2 construct: human KAT2A (aa 323–837, 15 nM); purchased Reaction Biology Corporation
T2 sequence (Q92830 323-837): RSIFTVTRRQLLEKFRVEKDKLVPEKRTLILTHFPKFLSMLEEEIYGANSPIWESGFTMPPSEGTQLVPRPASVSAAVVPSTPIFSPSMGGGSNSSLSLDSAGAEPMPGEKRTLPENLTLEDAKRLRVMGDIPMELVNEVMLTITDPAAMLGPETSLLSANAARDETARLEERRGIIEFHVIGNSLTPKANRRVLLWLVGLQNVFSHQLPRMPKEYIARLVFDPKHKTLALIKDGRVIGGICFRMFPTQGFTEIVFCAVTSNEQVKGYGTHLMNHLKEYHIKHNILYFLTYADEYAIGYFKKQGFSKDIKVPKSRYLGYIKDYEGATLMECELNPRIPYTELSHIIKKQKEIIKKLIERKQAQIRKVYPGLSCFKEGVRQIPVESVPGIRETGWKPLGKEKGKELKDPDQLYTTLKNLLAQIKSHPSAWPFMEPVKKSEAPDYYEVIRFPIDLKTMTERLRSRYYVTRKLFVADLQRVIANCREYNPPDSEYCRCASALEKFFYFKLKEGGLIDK
Experimental: The effects of the compounds on other KATs were determined using the HotSpot KAT assay (Reaction Biology Corporation, Malvern, PA, USA) according to the supplier’s procedure. The recombinant catalytic domains of human KAT2A (aa 323–837, 15 nM), KAT2B (aa 492–658, 25 nM), KAT3B (aa 1284–1672, 1 nM), KAT6A (aa 488–778, 10 nM), KAT6B (aa 657–1069, 10 nM), and full length human KAT5 (25 nM) and KAT7 (25 nM) were used. Each enzyme was incubated with the relevant histone peptide [H3 peptide for KAT2A, KAT2B, KAT3B, KAT6A, and KAT7 (2.5–5 μM, depending on the KAT isoform); H2A peptide for KAT5 (1.25 μM); H4 peptide for KAT6B (2.5 μM)] as a substrate and radio-isotope-labeled [^3H]Acetyl-CoA (0.2–1.5 μM, depending on the KAT isoform) as an acetyl donor in the assay buffer [50 mM Tris–HCl (pH 8.0), 50 mM NaCl, 0.1 mM EDTA, 1 mM DTT, 0.1 mM PMSF, 1% DMSO] for 1 h at 30 °C in the presence or absence of various compounds (1% DMSO final) titrated in a 2-fold serial dilution starting at 200 μM. Histone peptide acetylation was assessed by liquid scintillation counting using a Tri-Carb 2800TR Liquid Scintillation Analyzer (Perkin Elmer). Experiments were performed in biological triplicates. Signal reduction compared to control was plotted (as inhibition percentage) as a function of compound concentration. In cases in which an IC50 was calculated, the values were fitted by nonlinear regression (GraphPad Prism 8.0).

Compound | change in the different stages of cell cycle, HeLa (HeLa cells) | IC50 KAT3B (1 nM) (KAT3B) | IC50 (KAT3B) | effect on proliferation of NHLF [1] | LC3-II/-I ratio and p62 autophagic markers (WB), HCT116 [2] | % inhibition at 200 μM KAT2A (15 nM) (KAT2A) | inhibition at 200 µM (KAT2A)
CC1=NN(c2ccc(C(=O)O)cc2)C(=O)/C1=C\c1ccc[nH]1 [Compound 19, (Z)-4-(4-((1H-Pyrrol-2-yl)methylene)-3-methyl-5-oxo-4,5-dihydro-1H-pyrazol-1-yl)benzoic Acid] | no significative change | no inhibition at 200 μM | > 200 µM | did not significantly affect the proliferation | modulation of the LC3-II/-I ratio and p62 autophagic markers | did not inhibit | 0%
O=C(O)c1ccc(N2N=C(c3ccccc3)/C(=C/c3ccc[nH]3)C2=O)cc1 [Compound 34, (Z)-4-(4-((1H-Pyrrol-2-yl)methylene)-5-oxo-3-phenyl-4,5-dihydro-1H-pyrazol-1-yl)benzoic Acid] | no significative change | – | > 200 µM | did not significantly affect the proliferation | modulation of the LC3-II/-I ratio and p62 autophagic markers | did not inhibit | 0%
